From ChEMBL document CHEMBL1121647, “Synthesis and antiviral properties of (Z)-5-(2-bromovinyl)-2'-deoxyuridine” (1981)
Converted amounts (≈) assume the structure as drawn.

Test system: Vaccinia virus
Experiment: Minimum inhibitory concentration required to reduce vaccinia virus-induced cytopathogenicity in primary rabbit kidney cell cultures
Type: functional
Details: Orthopoxvirus vaccinia

SMILES | MIC [µg/mL]
O=c1[nH]c(=O)n([C@H]2C[C@H](O)[C@@H](CO)O2)cc1/C=C\Br | 4 (≈ 12 µM)
O=c1[nH]c(=O)n([C@H]2C[C@H](O)[C@@H](CO)O2)cc1I [IDOXURIDINE] | 0.1 (≈ 0.282 µM)
O=c1[nH]c(=O)n([C@H]2C[C@H](O)[C@@H](CO)O2)cc1/C=C/Br [BRIVUDINE] | 4 (≈ 12 µM)
